Values of other authors in patent US10085951B2, “Curcuminoid formulations and related methods of treatment” (DESIGNS FOR HEALTH, INC., priority 2014, dated 2018).

Solubility in ethanol, dimethylsulfoxide and acetone: soluble
Solubility in water and ether: practically insoluble
SMILES: COc1cc(/C=C/C(=O)CC(=O)/C=C/c2ccc(O)c(OC)c2)ccc1O [curcumin, 1,6-heptadiene-3,5-dione1,7-bis (4-hydroxy-3-methoxyphenyl)-(1E,6E)]
